Data taken from patent US11253499B2, “Compounds” (priority 2017, dated 2022).
Where two headings read alike, the source gives them in different places.

How the values were obtained:
[1] = system: M. tuberculosis H37Rv-GFP; type: cell-based, Mycobacterium tuberculosis; conditions: read-out: EC50_H37Rv
[2] = system: Mycobacterium tuberculosis H37Rv in human macrophages THP-1
Description: Mycobacterium tuberculosis In Vitro H37Rv in Human Macrophaqes THP-1 Inhibition Assay (Intracellular Assay)
Procedure was carried out as described in Sorrentino, F. et al. (2016) Antimicrob. Agents Chemother. 60 (1), 640-645 (supplemental material), except that before THP-1 infected cells were seeded in 384 well plates, infected macrophages were filtered in the last step of wash steps with a 40 um cell strainer to remove cell clumps and obtain single cell suspension.
The compounds of the examples were tested essentially in accordance with the above-mentioned assay (without the presence of ethionamide).

[3] = potentiation of ethionamide, ETH 0.1 μg/ml, […], 5 days at 37° C., […]

Row | Compound | EC50 [1, 3] [nM] | IC50 [2] [nM] | EC50 [1] [nM]
1 | O=C(CCC(F)(F)F)N1CC(c2ncc(F)cc2F)C1 [Example 10, 1-[3-(3,5-difluoro-2-pyridyl)azetidin-1-yl]-4,4,4-trifluoro-butan-1-one] | < 50 | – | –
2 | O=C(CCC(F)(F)F)N1CC(C2CCCCC2)C1 [Example 6, 1-(3-cyclohexylazetidin-1-yl)-4,4,4-trifluoro-butan-1-one] | < 50 | – | –
3 | O=C(CCC(F)(F)F)N1CC(c2cncc(C(F)(F)F)c2)C1 [Example 24, 4,4,4-trifluoro-1-[3-[5-(trifluoromethyl)-3-pyridyl]azetidin-1-yl]butan-1-one] | 1000 to 10000 | – | –
4 | O=C(CCCC(F)(F)F)N1CC(c2ccc(F)cc2)C1 [Example 3, 5,5,5-trifluoro-1-[3-(4-fluorophenyl)azetidin-1-yl]pentan-1-one] | – | 50 to 250 | < 50
5 | O=C(CCC(F)(F)F)N1CC(N2CCCCC2)C1 [Example 39, 4,4,4-trifluoro-1-(3-(piperidin-1-yl)azetidin-1-yl)butan-1-one] | 1000 to 10000 | – | –
6 | O=C(CCC(F)(F)F)N1CC(c2ccnc(F)c2)C1 [Example 31, 4,4,4-trifluoro-1-[3-(2-fluoro-4-pyridyl)azetidin-1-yl]butan-1-one] | 500 to 1000 | – | –
7 | O=C(CCC(F)(F)F)N1CC(c2cccc(C(F)(F)F)c2)C1 [Example 2, 4,4,4-trifluoro-1-[3-[3-(trifluoromethyl)phenyl]azetidin-1-yl]butan-1-one] | – | < 50 | < 50
8 | O=C(CCC(F)(F)F)N1CC(c2cccc(Cl)c2)C1 [Example 17, 1-[3-(3-chlorophenyl)azetidin-1-yl]-4,4,4-trifluoro-butan-1-one] | – | < 50 | < 50
9 | O=C(CCC(F)(F)F)N1CC(c2ccc(Cl)nc2)C1 [Example 19] | – | 50 to 250 | 250 to 500
10 | Cc1cc(F)ccc1C1CN(C(=O)CCC(F)(F)F)C1 [Example 28, 4,4,4-trifluoro-1-[3-(4-fluoro-2-methyl-phenyl)azetidin-1-yl]butan-1-one] | – | 50 to 250 | 50 to 250
11 | O=C(CCC(F)(F)F)N1CC(c2cccnc2)C1 [Example 26, 4,4,4-trifluoro-1-[3-(3-pyridyl)azetidin-1-yl]butan-1-one] | – | 1000 to 10000 | 1000 to 10000
12 | O=C(CCC(F)(F)F)N1CC(C2CCOCC2)C1 [Example 38, 4,4,4-trifluoro-1-(3-(tetrahydro-2H-pyran-4-yl)azetidin-1-yl)butan-1-one] | – | 50 to 250 | 250 to 500
13 | O=C(CCC(F)(F)F)N1CC(c2ccc(C(F)(F)F)cc2)C1 [Example 16] | – | 250 to 500 | 50 to 250
14 | O=C(CCC(F)(F)F)N1CC(C2CCC(F)(F)CC2)C1 [Example 40, 1-(3-(4,4-difluorocyclohexyl)azetidin-1-yl)-4,4,4-trifluorobutan-1-one] | 50 to 250 | – | –
15 | CC1(c2ccc(F)cc2)CN(C(=O)CCC(F)(F)F)C1 [Example 42, 4,4,4-trifluoro-1-(3-(4-fluorophenyl)-3-methylazetidin-1-yl)butan-1-one] | – | < 50 | < 50
16 | CC(C)Oc1ccc(C2CN(C(=O)CCC(F)(F)F)C2)cn1 [Example 36, 4,4,4-trifluoro-1-[3-(6-isopropoxy-3-pyridyl)azetidin-1-yl]butan-1-one] | 50 to 250 | – | –
17 | O=C(CCC(F)(F)F)N1CC(c2cncc(Cl)c2)C1 [Example 23, 1-[3-(5-chloro-3-pyridyl)azetidin-1-yl]-4,4,4-trifluoro-butan-1-one] | – | < 50 | 250 to 500
18 | O=C(CCC(F)(F)F)N1CC(c2ccc(F)cc2)C1 [Example 1, 4,4,4-trifluoro-1-[3-(4-fluorophenyl)azetidin-1-yl]butan-1-one] | – | < 50 | < 50
19 | O=C(CCC(F)(F)F)N1CC(c2ccc(Cl)cc2)C1 [Example 13, 1-[3-(4-chlorophenyl)azetidin-1-yl]-4,4,4-trifluoro-butan-1-one] | – | 50 to 250 | < 50
20 | O=C(CCC(F)(F)F)N1CC(c2cc(F)c(F)c(F)c2)C1 [Example 34, 4,4,4-trifluoro-1-[3-(3,4,5-trifluorophenyl)azetidin-1-yl]butan-1-one] | – | 50 to 250 | < 50
21 | O=C(CCC(F)(F)F)N1CC(c2ccc(F)nc2)C1 [Example 33, 4,4,4-trifluoro-1-[3-(6-fluoro-3-pyridyl)azetidin-1-yl]butan-1-one] | 500 to 1000 | – | –
22 | O=C(CCC(F)(F)F)N1CC(C2CC2)C1 [Example 4, 1-(3-cyclopropylazetidin-1-yl)-4,4,4-trifluoro-butan-1-one] | – | 50 to 250 | 250 to 500

Row | Compound | EC50 [1, 3] [nM] | IC50 [2] [nM] | EC50 [1] [nM]
23 | O=C(CCC(F)(F)F)N1CC(c2ccnc(C(F)(F)F)c2)C1 [Example 12, 4,4,4-trifluoro-1-[3-[2-(trifluoromethyl)-4-pyridyl]azetidin-1-yl]butan-1-one] | – | 50 to 250 | 250 to 500
24 | O=C(CCC(F)(F)F)N1CC(c2ccc(OCC(F)(F)F)nc2)C1 [Example 37, 4,4,4-trifluoro-1-[3-[6-(2,2,2-trifluoroethoxy)-3-pyridyl]azetidin-1-yl]butan-1-one] | 250 to 500 | – | –
25 | O=C(CCC(F)(F)F)N1CC(c2ccc(F)cn2)C1 [Example 9, 4,4,4-trifluoro-1-[3-(5-fluoro-2-pyridyl)azetidin-1-yl]butan-1-one] | – | 50 to 250 | 50 to 250
26 | O=C(CCC(F)(F)F)N1CC(c2ccc(F)c(F)c2)C1 [Example 27, 1-[3-(3,4-difluorophenyl)azetidin-1-yl]-4,4,4-trifluoro-butan-1-one] | < 50 | – | –
27 | O=C(CCC(F)(F)F)N1CC(c2ccc(C(F)(F)F)cn2)C1 [Example 8, 4,4,4-trifluoro-1-[3-[5-(trifluoromethyl)-2-pyridyl]azetidin-1-yl]butan-1-one] | – | 1000 to 10000 | 250 to 500
28 | O=C(CCC(F)(F)F)N1CC(c2ccnc(Cl)c2)C1 [Example 32, 1-[3-(2-chloro-4-pyridyl)azetidin-1-yl]-4,4,4-trifluoro-butan-1-one] | 250 to 500 | – | –
29 | O=C(CCC(F)(F)F)N1CC(c2cccc(F)c2)C1 [Example 29, 4,4,4-trifluoro-1-[3-(3-fluorophenyl)azetidin-1-yl]butan-1-one] | – | < 50 | < 50
30 | O=C(CCC(F)(F)F)N1CC(c2ccc(OC(F)(F)F)cc2)C1 [Example 14, 4,4,4-trifluoro-1-[3-[4-(trifluoromethoxy)phenyl]azetidin-1-yl]butan-1-one] | – | 250 to 500 | < 50
31 | O=C(CCC(F)(F)F)N1CC(c2ccc(C(F)(F)F)nc2)C1 [Example 21, 4,4,4-trifluoro-1-[3-[6-(trifluoromethyl)-3-pyridyl]azetidin-1-yl]butan-1-one] | – | 250 to 500 | 1000 to 10000
32 | O=C(CCC(F)(F)F)N1CC(c2cc(C(F)(F)F)ccn2)C1 [Example 7, 4,4,4-trifluoro-1-[3-[4-(trifluoromethyl)-2-pyridyl]azetidin-1-yl]butan-1-one] | – | 50 to 250 | 50 to 250
33 | COc1ccc(C2CN(C(=O)CCC(F)(F)F)C2)cn1 [Example 22, 4,4,4-trifluoro-1-[3-(6-methoxy-3-pyridyl)azetidin-1-yl]butan-1-one] | < 50 | – | –
34 | O=C(CCC(F)(F)F)N1CC(F)(c2ccc(F)cc2)C1 [Example 44, 4,4,4-trifluoro-1-(3-fluoro-3-(4-fluorophenyl)azetidin-1-yl)butan-1-one] | < 50 | – | –
35 | N#Cc1ccc(C2CN(C(=O)CCC(F)(F)F)C2)cc1 [Example 43, 4-(1-(4,4,4-trifluorobutanoyl)azetidin-3-yl)benzonitrile] | 1000 to 10000 | – | –
36 | O=C(CCC(F)(F)F)N1CC(c2ccc(F)cc2F)C1 [Example 18, 1-[3-(2,4-difluorophenyl)azetidin-1-yl]-4,4,4-trifluoro-butan-1-one] | – | < 50 | < 50
37 | O=C(CCC(F)(F)F)N1CC(C2CCCC2)C1 [Example 5, 1-(3-cyclopentylazetidin-1-yl)-4,4,4-trifluoro-butan-1-one] | < 50 | – | –
38 | O=C(CCC(F)(F)F)N1CC(N2CCC(F)(F)CC2)C1 [Example 35, 1-[3-(4,4-difluoro-1-piperidyl)azetidin-1-yl]-4,4,4-trifluoro-butan-1-one] | 500 to 1000 | – | –
39 | COC1(c2ccc(F)cc2)CN(C(=O)CCC(F)(F)F)C1 [Example 41, 4,4,4-trifluoro-1-(3-(4-fluorophenyl)-3-methoxyazetidin-1-yl)butan-1-one] | – | < 50 | < 50
40 | O=C(CCC(F)(F)F)N1CC(c2cccc(OC(F)(F)F)c2)C1 [Example 15, 4,4,4-trifluoro-1-[3-[3-(trifluoromethoxy)phenyl]azetidin-1-yl]butan-1-one] | – | < 50 | < 50
41 | O=C(CCC(F)(F)F)N1CC(c2cc(Cl)ccn2)C1 [Example 11, 1-[3-(4-chloro-2-pyridyl)azetidin-1-yl]-4,4,4-trifluoro-butan-1-one] | – | 50 to 250 | 50 to 250
42 | O=C(CCC(F)(F)F)N1CC(c2ccc(F)cc2Cl)C1 [Example 20, 1-[3-(2-chloro-4-fluoro-phenyl)azetidin-1-yl]-4,4,4-trifluoro-butan-1-one] | – | 50 to 250 | 50 to 250
43 | O=C(CCC(F)(F)F)N1CC(c2ccncc2)C1 [Example 30, 4,4,4-trifluoro-1-[3-(4-pyridyl)azetidin-1-yl]butan-1-one] | 1000 to 10000 | – | –
44 | O=C(CCC(F)(F)F)N1CC(c2ccc(F)cc2C(F)(F)F)C1 [Example 25, 4,4,4-trifluoro-1-[3-[4-fluoro-2-(trifluoromethyl)phenyl]azetidin-1-yl]butan-1-one] | – | 50 to 250 | 50 to 250
